32 molecules from US10227329B2, “Compounds useful for treating disorders related to RET” (BLUEPRINT MEDICINES CORPORATION, priority 2016, dated 2019) can be followed below.

One experiment concerns the target wild type RET (Homo sapiens (Human), UniProt P07949). Kind of experiment: RET Wild Type Assay at KM (Caliper electrophoretic mobility shift). As to conditions: 25 μM ATP (KM). In kind it is biochemical.
Another experiment deals with RET V804L (Homo sapiens (Human), UniProt P07949, V804L). The experiment in a line: RET V804L Gatekeeper Mutant Assay at KM (Caliper electrophoretic mobility shift). In kind it is biochemical. As to conditions: 10 μM ATP (KM), read-out: V480L Mutant.
Sequence of RET V804L (P07949 29-1114 V804L): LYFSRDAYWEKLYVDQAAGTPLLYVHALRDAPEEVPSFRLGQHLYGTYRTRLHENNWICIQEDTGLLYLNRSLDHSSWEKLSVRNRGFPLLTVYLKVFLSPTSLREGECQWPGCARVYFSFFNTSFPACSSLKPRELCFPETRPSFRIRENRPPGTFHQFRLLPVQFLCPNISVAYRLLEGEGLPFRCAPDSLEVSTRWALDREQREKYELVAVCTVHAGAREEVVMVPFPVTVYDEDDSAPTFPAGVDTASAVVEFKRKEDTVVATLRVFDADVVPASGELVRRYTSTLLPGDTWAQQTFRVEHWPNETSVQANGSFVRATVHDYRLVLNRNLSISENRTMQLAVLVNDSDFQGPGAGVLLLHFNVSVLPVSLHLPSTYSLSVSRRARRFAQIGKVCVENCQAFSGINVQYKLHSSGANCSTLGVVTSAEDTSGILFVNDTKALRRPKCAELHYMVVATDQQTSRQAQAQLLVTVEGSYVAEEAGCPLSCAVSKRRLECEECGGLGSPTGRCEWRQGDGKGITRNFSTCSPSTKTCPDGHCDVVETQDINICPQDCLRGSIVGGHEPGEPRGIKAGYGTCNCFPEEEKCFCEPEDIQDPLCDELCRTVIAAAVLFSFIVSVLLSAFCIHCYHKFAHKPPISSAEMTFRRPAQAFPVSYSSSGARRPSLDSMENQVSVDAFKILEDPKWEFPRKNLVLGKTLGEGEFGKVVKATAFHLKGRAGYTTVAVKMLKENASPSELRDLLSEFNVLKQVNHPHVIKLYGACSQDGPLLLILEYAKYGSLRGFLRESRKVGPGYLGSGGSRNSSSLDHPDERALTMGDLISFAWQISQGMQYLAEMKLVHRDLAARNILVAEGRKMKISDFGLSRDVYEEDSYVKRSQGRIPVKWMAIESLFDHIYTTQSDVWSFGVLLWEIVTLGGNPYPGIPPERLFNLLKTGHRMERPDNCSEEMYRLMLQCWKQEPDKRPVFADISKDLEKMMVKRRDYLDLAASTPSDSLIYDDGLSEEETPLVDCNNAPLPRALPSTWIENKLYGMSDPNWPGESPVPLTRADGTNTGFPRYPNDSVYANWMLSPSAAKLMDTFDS

Molecules are shown by their SMILES.

Sequence of wild type RET (P07949 29-1114): as the sequence (P07949 29-1114 V804L) above, with L776V counted along it

Take `COC1(C(=O)NCc2ccc(-n3ccc(C)n3)nc2)CN(c2nc(C)cc(Nc3cc(C)[nH]n3)n2)C1` [Compound 137]: the IC50 on wild type RET and at RET V804L was less than 10 nM throughout.

As to `COC1(C(=O)NCc2ccc(-n3cc(C)cn3)nc2)CN(c2nc(C)cc(Nc3cc(C)[nH]n3)n2)C1` [Compound 138], the IC50 was 10 to 100 nM on wild type RET and less than 10 nM on RET V804L.

For the molecule `Cc1cc(Nc2cc(C)[nH]n2)nc(N2CC(C)(C(=O)N[C@@H](C)c3ccc(-n4cc(F)cn4)nc3)C2)c1` [Compound 139], the IC50 on wild type RET and at RET V804L was less than 10 nM throughout.

`Cc1cc(Nc2cc(C)[nH]n2)nc(N2CC(C(=O)N(C)[C@@H](C)c3ccc(-n4cc(F)cn4)nc3)C2)c1` [Compound 140]: the IC50 at wild type RET and on RET V804L was less than 10 nM in each case.

As to `Cc1cc(Nc2cc(C)[nH]n2)nc(N2CCC(F)(C(=O)NCc3ccc(-n4cccn4)nc3)CC2)n1` [Compound 141], the IC50 at wild type RET and at RET V804L was less than 10 nM throughout.

On to `Cc1cc(Nc2cc(C)[nH]n2)nc(N2CC(C(=O)N(C)[C@@H](C)c3ccc(-n4cc(F)cn4)nc3)C2)n1` [Compound 142], for which the IC50 on wild type RET and at RET V804L was less than 10 nM throughout.

As for `Cc1cc(Nc2cc(C)[nH]n2)nc(N2C[C@@H](C(=O)N[C@@H](C)c3ccc(-n4cc(F)cn4)nc3)[C@@H]2C)n1` [Compound 143], the IC50 on wild type RET and on RET V804L was less than 10 nM throughout.

For `Cc1cc(Nc2cc(C)[nH]n2)nc(N2C[C@H](C(=O)N[C@@H](C)c3ccc(-n4cc(F)cn4)nc3)[C@H]2C)n1` [Compound 144], the IC50 on wild type RET and on RET V804L was less than 10 nM throughout.

On to `Cc1cc(Nc2cc(C)[nH]n2)nc(N2CC(O)(C(=O)N[C@@H](C)c3ccc(-n4cc(F)cn4)nc3)C2)c1` [Compound 145], for which the IC50 on wild type RET and at RET V804L was less than 10 nM throughout.

Take `COC1(C(=O)NCc2ccc(-n3cccn3)nc2)CN(c2nc(Nc3cc(C)[nH]n3)cc(C)c2F)C1` [Compound 146]: the IC50 at wild type RET and on RET V804L was less than 10 nM each time.

For `COC1(C(=O)N[C@@H]2CCN(c3ccccn3)C2)CCN(c2nc(C)cc(Nc3cc(C)[nH]n3)n2)CC1` [Compound 147], the IC50 at wild type RET and on RET V804L was 10 to 100 nM throughout.

In the case of `COC1(C(=O)NCc2ccc(-n3cc(F)cn3)nc2)CN(c2nc(C)cc(Nc3cc(C)[nH]n3)n2)C1` [Compound 148], the IC50 at wild type RET and at RET V804L was less than 10 nM each time.

With `COC1(C(=O)N[C@@H](C)c2ccc(-n3cc(F)cn3)nc2)CN(c2nccc(Nc3cc(C)[nH]n3)n2)C1` [Compound 149], the IC50 at wild type RET and at RET V804L was less than 10 nM in each case.

Turning to `COC1(C(=O)NCc2ccc(-n3cc(F)cn3)nn2)CN(c2nc(C)cc(Nc3cc(C)[nH]n3)n2)C1` [Compound 150], the IC50 at wild type RET and at RET V804L was 10 to 100 nM throughout.

For `Cc1cc(Nc2cc(C)[nH]n2)nc(N2CC(F)(C(=O)N[C@@H](C)c3ccc(-n4cc(F)cn4)nc3)C2)c1` [Compound 151], the IC50 on wild type RET and at RET V804L was less than 10 nM in each case.

In the case of `Cc1cc(Nc2cc(C)c(F)c(N3CC(C(=O)N[C@@H](C)c4ccc(-n5cc(F)cn5)nc4)C3)n2)n[nH]1` [Compound 152], the IC50 on wild type RET and at RET V804L was less than 10 nM throughout.

With `Cc1cc(Nc2cc(C)[nH]n2)nc(N2CC(F)(C(=O)N[C@@H](C)c3ccc(-n4cc(F)cn4)nc3)C2)n1` [Compound 153], the IC50 on wild type RET and at RET V804L was less than 10 nM each time.

For the molecule `COC1(C(=O)NCc2ccc(N3CC[C@H](F)C3)nc2)CN(c2nc(C)cc(Nc3cc(C)[nH]n3)n2)C1` [Compound 154], the IC50 on wild type RET and at RET V804L was greater than 100 nM each time.

For the molecule `COC1(C(=O)NCc2ccc(N3CC[C@@H](F)C3)nc2)CN(c2nc(C)cc(Nc3cc(C)[nH]n3)n2)C1` [Compound 155], the IC50 was greater than 100 nM on wild type RET and 10 to 100 nM on RET V804L.

In the case of `COC1(C(=O)NCc2ccc(-n3cccn3)nc2)CN(c2nc(Nc3cc(C)[nH]n3)cc(C)c2C#N)C1` [Compound 156], the IC50 at wild type RET and at RET V804L was less than 10 nM throughout.

`Cc1cc(Nc2cc(C)c(C#N)c(N3CC(F)(C(=O)N[C@@H](C)c4ccc(-n5cccn5)nc4)C3)n2)n[nH]1` [Compound 157]: the IC50 at wild type RET and on RET V804L was less than 10 nM in each case.

Turning to `CCC1(C(=O)NCc2ccc(-n3cccn3)nc2)CCN(c2nc(C)cc(Nc3cc(C)[nH]n3)n2)CC1` [Compound 158], the IC50 at wild type RET and at RET V804L was less than 10 nM in each case.

With `Cc1cc(Nc2cc(C)[nH]n2)nc(N2CC(C#N)(C(=O)N[C@@H](C)c3ccc(-n4cc(F)cn4)nc3)C2)n1` [Compound 159], the IC50 on wild type RET and on RET V804L was less than 10 nM throughout.

`COC1(C(=O)NCc2ccc(-n3cccn3)nc2)CCN(c2cc(C)cc(Nc3cc(C)[nH]n3)n2)CC1` [Compound 160, N-((6-(1H-pyrazol-1-yl)pyridin-3-yl)methyl)-4-methoxy-1-(4-methyl-6-(3-methyl-1H-pyrazol-5-ylamino)pyridin-2-yl)piperidine-4-carboxamide]: the IC50 on wild type RET and at RET V804L was less than 10 nM each time.

For the molecule `COC1(C(=O)NCc2ccc(-n3cccn3)nc2)CCN(c2nc(C)cc(Nc3cc(C)[nH]n3)n2)CC1` [Compound 161, N-((6-(1H-pyrazol-1-yl)pyridin-3-yl)methyl)-4-methoxy-1-(4-methyl-6-((5-methyl-1H-pyrazol-3-yl)amino)pyrimidin-2-yl)piperidine-4-carboxamide], the IC50 at wild type RET and at RET V804L was less than 10 nM throughout.

For `Cc1cc(Nc2cc(C)[nH]n2)nc(N2CCC(O)(C(=O)N(C)Cc3ccc(-n4cccn4)nc3)CC2)n1` [Compound 162], the IC50 at wild type RET and on RET V804L was less than 10 nM each time.

Regarding `COC1(C(=O)NCc2ccc(-n3nc(C)cc3C)nc2)CN(c2nc(C)cc(Nc3cc(C)[nH]n3)n2)C1` [Compound 163], the IC50 on wild type RET and on RET V804L was 10 to 100 nM in each case.

`Cc1cc(Nc2cc(C)[nH]n2)nc(N2CCC(C(=O)N[C@@H](C)c3ccc(-n4cc(F)cn4)nc3)CC2)c1` [Compound 164]: the IC50 on wild type RET and at RET V804L was less than 10 nM in each case.

For the molecule `Cc1cc(Nc2cc(C)c(C#N)c(N3CC(F)(C(=O)NCc4ccc(-n5cc(F)cn5)nc4)C3)n2)n[nH]1` [Compound 165], the IC50 at wild type RET and at RET V804L was less than 10 nM throughout.

As to `CCC1(C(=O)N[C@@H](C)c2ccc(-n3cc(F)cn3)nc2)CN(c2nc(C)cc(Nc3cc(C)[nH]n3)n2)C1` [Compound 166, (S)-3-ethyl-N-(1-(6-(4-fluoro-1H-pyrazol-1-yl)pyridin-3-yl)ethyl)-1-(4-methyl-6-((5-methyl-1H-pyrazol-3-yl)amino)pyrimidin-2-yl)azetidine-3-carboxamide], the IC50 at wild type RET and on RET V804L was less than 10 nM throughout.

As for `COC1(C(=O)N[C@@H](C)c2ccc(-n3cc(F)cn3)nc2)CN(c2cc(C)cc(Nc3cc(C)[nH]n3)n2)C1` [Compound 167], the IC50 on wild type RET and on RET V804L was less than 10 nM in each case.

For the molecule `COC1(C(=O)N[C@@H](C)c2ccc(-n3cccn3)nc2)CN(c2nc(Nc3cc(C)[nH]n3)cc(C)c2F)C1` [Compound 168], the IC50 on wild type RET and at RET V804L was less than 10 nM each time.
